13 molecules from patent US20030073699A1, “Compounds and methods to treat cardiac failure and other disorders” (priority 1998, published 2003) can be followed below.

In general, pIC50 refers to the negative decadic logarithm of the IC50, by convention in mol/L.

pIC50: −log10 of the molar value.

Type in all cases: biochemical
Experiment [1] addresses p38β (Homo sapiens, UniProt Q15759). Put plainly: p38 kinase inhibition assay, specificity versus p38β. Particulars: for pIC50: read-out: P38-β IC50; for IC50 ratio β/α: specificity for p38α as compared to p38β. On the procedure: (§1) The compounds to be tested were solubilized in DMSO and diluted into water to the desired concentrations. The p38 kinase was diluted to 10 μg/ml into a buffer containing 20 mM MOPS, pH 7.0,25 mM beta-glycerol phosphate, 2 mg/ml gelatin; 0.5 mM EGTA, and 4 mM DTT.
(§2) The reaction was carried out by mixing 20 μl test compound with 10 μl of a substrate cocktail containing 500 μg/ml peptide substrate and 0.2 mM ATP (+200 μCi/ml gamma-32P-ATP) in a 4× assay buffer. The reaction was initiated by the addition of 10 μl of p38 kinase. […] After a 40 minute incubation at room temperature, the reaction was stopped by the addition of 10 μl per reaction of 0.25 M phosphoric acid.
A portion of the reaction was spotted onto a disk of P81 phosphocellulose paper, the filters were dried for 2 minutes and then washed 4× in 75 mM H3PO4. The filters were rinsed briefly in 95% ethanol, dried, then placed in scintillation vials with liquid scintillation cocktail.
Alternatively, the substrate is previously biotinylated and the resulting reactions are spotted on SAM^2™ streptavidin filter squares (Promega). The filters are washed 4× in 2M NaCl, 4× in 2M NaCl with 1% phosphoric acid, 2× in water, and briefly in 95% ethanol. The filter squares are dried and placed in scintillation vials with liquid scintillation cocktail.
Counts incorporated are determined on a scintillation counter. Relative enzyme activity is calculated by subtracting background counts (counts measured in the absence of enzyme) from each result, and comparing the resulting counts to those obtained in the absence of inhibitor. IC50 values were determined with curve-fitting plots available with common software packages. Approximate IC50 values were calculated using formula
where A=fractional activity and i=total inhibitor concentration.
The compounds of the invention as well as those containing piperazine, generally, are specific for p38α as compared to p38β. […] It is seen that the specificity for α as opposed to β is generally of the order of ten-fold.

In experiment [2] the target is p38α (Homo sapiens, UniProt Q16539). Nature of the experiment: p38 kinase inhibition assay, activity for p38α. Conditions: for pIC50: inhibition of p38α, based on IC50 curves; for Fold increase Piperidinyl/Piperazinyl: p38α potency of piperidinyl versus corresponding piperazinyl compound.
Experiment [3] concerns the target p38 kinase (Homo sapiens, UniProt Q16539). Nature of the experiment: Assay for p38 kinase inhibition (Example 19). Conditions: tested as described in Example 19. As to the method:
as §1, §2
A portion of the reaction was spotted onto a disk of P81 phosphocellulose paper, the filters were dried for 2 minutes and then washed 4× in 75 mM H3PO4. The filters were rinsed briefly in 95% ethanol, dried, then placed in scintillation vials with liquid scintillation cocktail. […]
Counts incorporated are determined on a scintillation counter. Relative enzyme activity is calculated by subtracting background counts (counts measured in the absence of enzyme) from each result, and comparing the resulting counts to those obtained in the absence of inhibitor. IC50 values were determined with curve-fitting plots available with common software packages. Approximate IC50 values were calculated using formula […]

Sequence of p38β (Q15759 whole entry): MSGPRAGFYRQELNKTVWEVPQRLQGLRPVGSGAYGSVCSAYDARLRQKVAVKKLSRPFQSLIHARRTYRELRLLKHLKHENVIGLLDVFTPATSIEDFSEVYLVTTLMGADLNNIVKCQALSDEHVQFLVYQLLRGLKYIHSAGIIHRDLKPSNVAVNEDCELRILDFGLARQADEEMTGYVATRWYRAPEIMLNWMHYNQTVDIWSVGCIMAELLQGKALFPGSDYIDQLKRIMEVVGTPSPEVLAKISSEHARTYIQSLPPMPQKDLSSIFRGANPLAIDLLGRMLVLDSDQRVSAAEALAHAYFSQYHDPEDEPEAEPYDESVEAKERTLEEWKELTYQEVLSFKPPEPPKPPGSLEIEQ
Sequence of p38α (Q16539 whole entry): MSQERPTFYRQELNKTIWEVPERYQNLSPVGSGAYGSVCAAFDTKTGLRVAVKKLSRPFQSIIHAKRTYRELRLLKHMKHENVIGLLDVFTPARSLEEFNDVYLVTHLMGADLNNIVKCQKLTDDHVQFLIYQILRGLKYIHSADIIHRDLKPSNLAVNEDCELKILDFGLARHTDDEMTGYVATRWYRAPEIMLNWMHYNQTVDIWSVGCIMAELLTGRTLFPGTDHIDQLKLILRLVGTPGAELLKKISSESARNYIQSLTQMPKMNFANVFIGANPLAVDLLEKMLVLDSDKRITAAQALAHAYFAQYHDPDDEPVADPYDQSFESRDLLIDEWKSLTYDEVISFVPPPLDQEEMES
Sequence of p38 kinase (Q16539 whole entry): as above

For the molecule `O=C(c1ccc2cc[nH]c2c1)N1CCC(Cc2ccccc2)CC1` [Piperidinyl 6, 4-benzylpiperidinyl-indole-6-carboxamide], the pIC50 in experiment [1] is 5.42.

In turn, `O=C(c1cccc2[nH]ccc12)N1CCN(Cc2ccccc2)CC1` [Piperazinyl 4, reference compound] gave a pIC50 in experiment [2] of 5.81. Besides, in experiment [1], the pIC50 was 4.62 and the “IC50 ratio β/α” value was 15.6.

Take `O=C(c1ccc2[nH]ccc2c1)N1CCC(Cc2ccccc2)CC1` [Piperidinyl 5, 4-benzylpiperidinyl-indole-5-carboxamide]: the pIC50 in experiment [2] is 6.82; in experiment [1] it was 5.52.

As to `O=C(c1cccc2cc[nH]c12)N1CCC(Cc2ccccc2)CC1` [Piperidinyl 7], in experiment [2], the negative-log IC50 (pIC50) was 5.15 and the “Fold increase Piperidinyl/Piperazinyl” value is on record as >4.3.

On to “4-(4-benzyl piperazinyl)-indole-2-carboxamide [Piperazinyl 2]”, for which the negative logarithm of the IC50 (pIC50) in experiment [2] was < 4.52.

On to `O=C(c1cccc2cc[nH]c12)N1CCN(Cc2ccccc2)CC1` [Piperazinyl 7], for which the negative-log IC50 (pIC50) in experiment [2] is < 4.52.

Take `O=C(c1ccc2cc[nH]c2c1)N1CCN(Cc2ccccc2)CC1` [Piperazinyl 6]: the negative logarithm of the IC50 (pIC50) in experiment [2] is 5.26; in experiment [1], 4.41. Moreover, the “IC50 ratio β/α” value in experiment [1] came out at 7.08.

`O=C(c1c[nH]c2ccccc12)N1CCN(Cc2ccccc2)CC1` [Piperazinyl 3, reference compound]: the negative logarithm of the IC50 (pIC50) is 5.32 in experiment [2] and 4.47 in experiment [1]. Besides, in experiment [1], the “IC50 ratio β/α” value stood at 7.17.

For `O=C(c1cc2ccccc2[nH]1)N1CCC(Cc2ccccc2)CC1` [Piperidinyl 2], the negative-log IC50 (pIC50) in experiment [2] is 5.58.

In the case of `O=C(c1c[nH]c2ccccc12)N1CCC(Cc2ccccc2)CC1` [Piperidinyl 3], in experiment [2], the pIC50 was 6.79 and the “Fold increase Piperidinyl/Piperazinyl” value turned out to be 29.1. In experiment [1], the pIC50 was 5.75 and the “IC50 ratio β/α” value came out at 10.9.

On to `O=C(c1cccc2[nH]ccc12)N1CCC(Cc2ccccc2)CC1` [Piperidinyl 4, 4-benzylpiperidinyl-indoie-4-carboxamide], for which, in experiment [2], the pIC50 is 6.80 and the “Fold increase Piperidinyl/Piperazinyl” value came out at 9.7. Moreover, in experiment [1], the pIC50 was 5.61 and the “IC50 ratio β/α” value is 15.3.

For the molecule `O=C(c1ccc2[nH]ccc2c1)N1CCN(Cc2ccccc2)CC1` [Piperazinyl 5], in experiment [1], the pIC50 was 4.59 and the “IC50 ratio β/α” value is reported as 15.1.

For `CC1CC(Cc2ccccc2)CCN1C(=O)c1ccc2[nH]ccc2c1` (stereo not shown) [Example 18], in experiment [3], the negative-log IC50 (pIC50) was 6.55.
